The results in this text go back to ChEMBL document CHEMBL2424545, “Structure-efficiency relationship of [1,2,4]triazol-3-ylamines as novel nicotinamide isosteres that inhibit tankyrases” (J Med Chem, 2013).

A short description of data set [1]: Mean residence time (0 to t) in C57BL/6 mouse at 1 mg/kg, iv. The data set is classed as ADME, organism-based. Further details: dose 1 mg/kg, route intravenous. Particulars: in vivo.
Data set [2] is described as follows: Plasma clearance in C57BL/6 mouse at 1 mg/kg, iv. Further details: dose 1 mg/kg, route intravenous. The data set is classed as ADME, organism-based.
For data set [3], the target named is T1, Poly [ADP-ribose] polymerase tankyrase-1 (Homo sapiens, UniProt O95271).
T1 sequence (O95271 whole entry): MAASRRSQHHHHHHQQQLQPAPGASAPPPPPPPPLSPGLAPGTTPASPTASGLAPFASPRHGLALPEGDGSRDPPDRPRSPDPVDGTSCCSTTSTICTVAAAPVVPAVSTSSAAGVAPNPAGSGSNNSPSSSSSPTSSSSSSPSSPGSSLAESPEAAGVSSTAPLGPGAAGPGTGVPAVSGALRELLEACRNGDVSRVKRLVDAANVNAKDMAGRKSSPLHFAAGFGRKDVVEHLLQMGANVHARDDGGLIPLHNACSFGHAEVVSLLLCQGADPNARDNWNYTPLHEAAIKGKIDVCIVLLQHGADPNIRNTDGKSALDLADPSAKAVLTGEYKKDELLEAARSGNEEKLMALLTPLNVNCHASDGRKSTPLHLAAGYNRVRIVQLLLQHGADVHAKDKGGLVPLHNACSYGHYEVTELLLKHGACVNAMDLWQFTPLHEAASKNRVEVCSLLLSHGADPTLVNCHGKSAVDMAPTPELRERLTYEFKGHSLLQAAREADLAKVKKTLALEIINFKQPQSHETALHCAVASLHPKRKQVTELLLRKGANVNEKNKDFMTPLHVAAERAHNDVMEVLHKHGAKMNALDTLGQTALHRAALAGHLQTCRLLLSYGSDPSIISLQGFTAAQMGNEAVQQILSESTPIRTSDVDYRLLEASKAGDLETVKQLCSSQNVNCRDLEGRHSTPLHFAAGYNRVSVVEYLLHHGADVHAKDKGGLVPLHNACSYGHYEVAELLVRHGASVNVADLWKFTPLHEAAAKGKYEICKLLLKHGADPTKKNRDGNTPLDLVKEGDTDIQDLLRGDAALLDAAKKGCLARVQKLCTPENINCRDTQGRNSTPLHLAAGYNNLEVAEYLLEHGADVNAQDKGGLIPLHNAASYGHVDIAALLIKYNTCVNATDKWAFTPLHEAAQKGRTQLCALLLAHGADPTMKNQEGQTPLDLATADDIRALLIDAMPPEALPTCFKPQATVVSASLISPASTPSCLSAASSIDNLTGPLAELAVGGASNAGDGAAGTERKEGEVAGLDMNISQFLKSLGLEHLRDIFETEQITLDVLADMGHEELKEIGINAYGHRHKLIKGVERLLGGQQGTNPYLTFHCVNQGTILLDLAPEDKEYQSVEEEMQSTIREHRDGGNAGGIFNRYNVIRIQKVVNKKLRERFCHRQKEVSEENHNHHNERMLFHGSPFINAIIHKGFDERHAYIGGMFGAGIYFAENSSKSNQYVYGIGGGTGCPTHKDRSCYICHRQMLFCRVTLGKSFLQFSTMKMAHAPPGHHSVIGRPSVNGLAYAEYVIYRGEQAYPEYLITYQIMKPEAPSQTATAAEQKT
Kind of data set: Inhibition of N-terminal GST-tagged human TNKS1 expressed in baculovirus infected sf21 cells after 60 mins by LC-MS analysis.

A short description of data set [4]: Tmax in C57BL/6 mouse at 5 mg/kg, po. The format is ADME, organism-based. Further details: dose 5 mg/kg, route oral. The settings on record: in vivo.
The nature of data set [5]: AUC (last) in C57BL/6 mouse at 5 mg/kg, po. The data set is classed as ADME, organism-based. Also noted: time 0 - last, dose 5 mg/kg, route oral. Particulars: plasma.
The nature of data set [6]: AUC (last) in C57BL/6 mouse at 1 mg/kg, iv. Particulars: plasma. Also noted: time 0 - last, dose 1 mg/kg, route intravenous. The data set is classed as ADME, organism-based.
The nature of data set [7]: Solubility of the compound at pH 6.8. Particulars: buffer. The format is physicochemical.
Data set [8] can be described thus: Inhibition of TNKS in human SW480 cells assessed as stabilization of axin2 after 24 hrs by ELISA. The data set is classed as cell-based.
Data set [9] in a line: Tmax in C57BL/6 mouse at 1 mg/kg, iv. Further details: dose 1 mg/kg, route intravenous. Particulars: in vivo. The data set is classed as ADME, organism-based.
The nature of data set [10]: Inhibition of Wnt signaling in human HEK293 cells by STF luciferase reporter gene assay.
Data set [11] in a line: Volume of distribution at steady state in C57BL/6 mouse at 1 mg/kg, iv. The data set is classed as ADME, organism-based. Also noted: dose 1 mg/kg, route intravenous. Particulars: in vivo, read-out: Vdss(app).
Data set [12] can be described thus: Hepatic extraction ratio in mouse liver microsomes. The data set is classed as ADME, Microsome. Particulars: read-out: ERH. (In general: Liver microsomes are vesicles of endoplasmic reticulum, rich in cytochrome P450 enzymes.)
A short description of data set [13]: Cmax in C57BL/6 mouse at 1 mg/kg, iv. The data set is classed as ADME, organism-based. Further details: dose 1 mg/kg, route intravenous. The settings on record: in vivo.
A further data set deals with Mus musculus. Nature of the data set: T(last) in C57BL/6 mouse at 1 mg/kg, iv. The format is ADME, organism-based. Further details: dose 1 mg/kg, route intravenous. Particulars: in vivo.
Data set [14] has as its target Poly [ADP-ribose] polymerase 1 (Homo sapiens, UniProt P09874).
Description: Inhibition of human PARP1 after 60 mins by LC-MS analysis
Data set [15] addresses T2, Poly [ADP-ribose] polymerase tankyrase-2 (Homo sapiens, UniProt Q9H2K2).
T2 sequence (Q9H2K2 whole entry): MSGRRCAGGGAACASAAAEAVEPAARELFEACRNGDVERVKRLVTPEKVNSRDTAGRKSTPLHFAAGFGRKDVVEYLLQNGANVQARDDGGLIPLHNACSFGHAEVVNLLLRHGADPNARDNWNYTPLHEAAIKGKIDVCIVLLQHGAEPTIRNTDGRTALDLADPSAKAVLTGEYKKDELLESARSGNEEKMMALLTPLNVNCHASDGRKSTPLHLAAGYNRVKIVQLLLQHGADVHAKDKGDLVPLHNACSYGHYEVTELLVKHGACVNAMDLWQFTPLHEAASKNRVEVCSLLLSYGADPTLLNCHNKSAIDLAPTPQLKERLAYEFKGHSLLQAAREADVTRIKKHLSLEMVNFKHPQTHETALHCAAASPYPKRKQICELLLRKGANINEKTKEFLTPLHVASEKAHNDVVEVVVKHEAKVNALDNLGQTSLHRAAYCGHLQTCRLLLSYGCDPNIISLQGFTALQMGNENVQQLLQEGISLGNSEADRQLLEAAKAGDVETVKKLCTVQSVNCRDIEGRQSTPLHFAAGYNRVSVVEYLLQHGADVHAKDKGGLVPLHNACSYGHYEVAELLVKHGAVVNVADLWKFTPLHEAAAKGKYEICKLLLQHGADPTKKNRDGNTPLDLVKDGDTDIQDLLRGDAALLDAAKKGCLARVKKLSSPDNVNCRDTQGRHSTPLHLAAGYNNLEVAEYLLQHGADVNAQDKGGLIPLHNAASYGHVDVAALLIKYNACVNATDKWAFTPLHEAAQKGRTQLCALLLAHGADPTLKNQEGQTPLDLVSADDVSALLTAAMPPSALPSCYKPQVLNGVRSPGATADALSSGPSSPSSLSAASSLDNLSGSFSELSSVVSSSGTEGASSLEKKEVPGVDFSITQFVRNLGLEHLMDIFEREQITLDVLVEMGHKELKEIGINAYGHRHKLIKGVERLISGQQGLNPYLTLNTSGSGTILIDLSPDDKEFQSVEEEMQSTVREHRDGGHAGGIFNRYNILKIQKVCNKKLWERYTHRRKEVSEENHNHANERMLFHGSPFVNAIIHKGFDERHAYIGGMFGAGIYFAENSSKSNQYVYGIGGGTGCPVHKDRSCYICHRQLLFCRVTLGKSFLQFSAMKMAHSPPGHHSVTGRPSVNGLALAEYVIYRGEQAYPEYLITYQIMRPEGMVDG
Nature of the data set: Inhibition of N-terminal GST-tagged TNKS2 (unknown origin) expressed in baculovirus infected sf21 cells after 60 mins by LC-MS analysis.

Data set [16] in a line: Half life in C57BL/6 mouse at 1 mg/kg, iv. The data set is classed as ADME, organism-based. Also noted: dose 1 mg/kg, route intravenous. Particulars: in vivo.
Data set [17] in a line: Oral bioavailability in C57BL/6 mouse at 5 mg/kg. The data set is classed as ADME, organism-based. Particulars: in vivo.
The nature of data set [18]: Cmax in C57BL/6 mouse at 5 mg/kg, po. The format is ADME, organism-based. Also noted: dose 5 mg/kg, route oral. The settings on record: in vivo.
Data set [19] in a line: Hepatic extraction ratio in human liver microsomes. The format is ADME, Microsome. Particulars: read-out: ERH.

Where only a bound is given, the exact number is not on record here.

Chain of Poly [ADP-ribose] polymerase 1 (P09874 whole entry): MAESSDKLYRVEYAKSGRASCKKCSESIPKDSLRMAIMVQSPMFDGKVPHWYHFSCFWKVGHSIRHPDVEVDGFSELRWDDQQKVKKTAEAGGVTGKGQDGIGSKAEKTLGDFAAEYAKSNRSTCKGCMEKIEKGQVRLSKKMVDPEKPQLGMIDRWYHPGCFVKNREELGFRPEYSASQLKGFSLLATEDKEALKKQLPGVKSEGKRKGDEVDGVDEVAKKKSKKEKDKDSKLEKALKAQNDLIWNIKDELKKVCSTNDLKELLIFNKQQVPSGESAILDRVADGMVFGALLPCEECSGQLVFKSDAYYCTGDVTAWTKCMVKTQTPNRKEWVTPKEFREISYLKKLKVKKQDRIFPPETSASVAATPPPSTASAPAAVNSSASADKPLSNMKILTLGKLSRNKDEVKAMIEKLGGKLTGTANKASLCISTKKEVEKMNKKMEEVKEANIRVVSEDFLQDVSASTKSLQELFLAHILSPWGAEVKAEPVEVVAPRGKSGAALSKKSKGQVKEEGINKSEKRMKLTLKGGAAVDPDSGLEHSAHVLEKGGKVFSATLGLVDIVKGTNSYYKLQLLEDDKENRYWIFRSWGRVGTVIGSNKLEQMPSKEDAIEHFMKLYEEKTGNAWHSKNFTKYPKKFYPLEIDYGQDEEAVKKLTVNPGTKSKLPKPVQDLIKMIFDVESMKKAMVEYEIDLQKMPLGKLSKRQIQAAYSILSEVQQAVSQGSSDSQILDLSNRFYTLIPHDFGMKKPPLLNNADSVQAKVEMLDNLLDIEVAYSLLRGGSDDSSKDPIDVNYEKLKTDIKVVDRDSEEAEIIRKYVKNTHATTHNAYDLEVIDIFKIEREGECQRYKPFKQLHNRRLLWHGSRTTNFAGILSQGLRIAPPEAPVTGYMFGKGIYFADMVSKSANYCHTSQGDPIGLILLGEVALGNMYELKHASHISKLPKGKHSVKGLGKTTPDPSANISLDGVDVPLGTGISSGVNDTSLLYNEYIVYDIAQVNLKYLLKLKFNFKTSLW

Usually MRT last stands for a mean duration of stay, worked out from the concentration-time curve. As a reminder, the clearance is a measure of how efficiently the substance is removed, as volume per time. The IC50 is the concentration needed to halve the response being measured. The Tmax is the time from dosing to the highest level. By AUC(0-t) is commonly meant exposure summed from dosing to a finite time, without extrapolation to infinity. The low end stands for less exposure, the high end for more exposure. In general, solubility refers to the concentration that dissolves in the medium under given conditions. Read a low solubility as little dissolved substance. What is called Cmax is the peak of the concentration-time curve. What is called half-life is the time in which the quantity being followed falls by half. High values mean slow decline, low ones rapid decline. As a reminder, the bioavailability is the share of a dose that reaches the circulation, judged against a reference dose that is usually intravenous. For `CC(C)CC(=O)Nc1nnc2n1CCS2`, the MRT last in [1] was determined as 6 min. The compound further showed a clearance in data set [2] of 17 mL/min/kg. In addition, the 50% inhibitory concentration (IC50) stood at 0.395 µM in [3]; 7.67 µM in data set [8]; 6.45 µM in data set [10]; 55.3 µM in data set [14]; 0.103 µM in [15]. The Tmax in [4] and in data set [9] was 18 min throughout. For the same compound, the AUC(0-t) in data set [5] stood at 8.6 µM·h; in data set [6], 4.73 µM·h. Besides, in [7], the solubility is above 1000 µM. Besides, the Vd in data set [11] worked out at 0.1 L/kg. Moreover, the hepatic extraction ratio was found to be 0.29 in [12] and 0.17 in [19]. The highest concentration (Cmax) is 19.1 µM in data set [13] and 13.7 µM in data set [18]. In the data set with Mus musculus, this compound came in with a Tlast of 1 h. In addition, in data set [16], the half-life is 6 min. The compound further had a bioavailability in data set [17] of 36%.
